Source: PubChem BioAssay AID2060910 (Molecular Pharmacology Branch, DTP, NCI, 2025)

Tested on: 242566-281-R-J2-PDC complex spheroid viability
Assay: Anticancer human tumor 242566-281-R-J2-PDC patient-derived pancreatic carcinoma cell line growth inhibition [RAS]
Conditions: for IC50: curve of first compound; for viability, T/C: stronger effect = lower value
How it was run: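 Tumour cells grown as complex spheroids with HUVEC endothelial cells and mesenchymal stem cells, treated with RAS pathway inhibitor combinations. Each agent spans half-log steps from near clinical Cmax, or 10 microM where Cmax is unknown.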

[1] = second compound 0.000949 µM, first compound 0.0316 µM
[2] = second compound 0.000949 µM, first compound 0.1 µM
[3] = second compound 0.000949 µM, first compound 0.316 µM
[4] = second compound 0.000949 µM, first compound 1 µM
[5] = second compound 0.000949 µM, first compound 3.16 µM
[6] = second compound 0.000949 µM, first compound 10 µM
[7] = second compound 0.003 µM, first compound 0.0316 µM
[8] = second compound 0.003 µM, first compound 0.1 µM
[9] = second compound 0.003 µM, first compound 0.316 µM
[10] = second compound 0.003 µM, first compound 1 µM
[11] = second compound 0.003 µM, first compound 3.16 µM
[12] = second compound 0.003 µM, first compound 10 µM
[13] = second compound 0.00949 µM, first compound 0.0316 µM
[14] = second compound 0.00949 µM, first compound 0.1 µM
[15] = second compound 0.00949 µM, first compound 0.316 µM
[16] = second compound 0.00949 µM, first compound 1 µM
[17] = second compound 0.00949 µM, first compound 3.16 µM
[18] = second compound 0.00949 µM, first compound 10 µM
[19] = second compound 0.03 µM, first compound 0.0316 µM
[20] = second compound 0.03 µM, first compound 0.1 µM
[21] = second compound 0.03 µM, first compound 0.316 µM
[22] = second compound 0.03 µM, first compound 1 µM
[23] = second compound 0.03 µM, first compound 3.16 µM
[24] = second compound 0.03 µM, first compound 10 µM
[25] = second compound 0.0949 µM, first compound 0.0316 µM
[26] = second compound 0.0949 µM, first compound 0.1 µM
[27] = second compound 0.0949 µM, first compound 0.316 µM
[28] = second compound 0.0949 µM, first compound 1 µM
[29] = second compound 0.0949 µM, first compound 3.16 µM
[30] = second compound 0.0949 µM, first compound 10 µM
[31] = second compound 0.3 µM, first compound 0.0316 µM
[32] = second compound 0.3 µM, first compound 0.1 µM
[33] = second compound 0.3 µM, first compound 0.316 µM
[34] = second compound 0.3 µM, first compound 1 µM
[35] = second compound 0.3 µM, first compound 3.16 µM
[36] = second compound 0.3 µM, first compound 10 µM
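Note: spheroids exposed to compound for 7 days before readout.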
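Throughout, for viability, T/C: 100% = DMSO vehicle control wells.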

Question: Which IC50 (second compound 0.000949 µM) does the source give for `CC1(O)CCCC1n1c(=O)c(C(F)F)cc2cnc(NC3CCN(S(C)(=O)=O)CC3)nc21` (centres undefined) + CCn1c(-c2cccnc2C(C)OC)c2c3cc(ccc31)N1CCOC(CC(NC(=O)C(C(C)C)N(C)C(=O)C3(F)CCN(C(=O)C#CC(C)(C)N(C)C)CC3)C(=O)N3CCCC(N3)C(=O)OCC(C)(C)C2)C1 here?
Answer: 6360 nM

Question: And the IC50 (second compound 0.003 µM)?
Answer: 5990 nM

Question: And the IC50 (second compound 0.00949 µM)?
Answer: 7700 nM

Question: What about the IC50 (second compound 0.03 µM) of the same compound?
Answer: > 10000 nM

Question: And the IC50 (second compound 0.0949 µM)?
Answer: > 10000 nM

Question: What about the IC50 (second compound 0.3 µM) of the same compound?
Answer: 6330 nM

Question: And the viability, T/C [1]?
Answer: 86.4%

Question: And the viability, T/C [2]?
Answer: 70.1%

Question: What about the viability, T/C [3] of the same compound?
Answer: 63.5%

Question: And the viability, T/C [4]?
Answer: 94.3%

Question: And the viability, T/C [5]?
Answer: 114%

Question: What about the viability, T/C [6] of the same compound?
Answer: 26.9%

Question: What about the viability, T/C [7] of the same compound?
Answer: 77.3%

Question: And the viability, T/C [8]?
Answer: 63.5%

Question: And the viability, T/C [9]?
Answer: 71.9%

Question: And the viability, T/C [10]?
Answer: 91.5%

Question: What about the viability, T/C [11] of the same compound?
Answer: 110%

Question: What about the viability, T/C [12] of the same compound?
Answer: 23.6%

Question: What about the viability, T/C [13] of the same compound?
Answer: 84.6%

Question: What about the viability, T/C [14] of the same compound?
Answer: 62.4%

Question: What about the viability, T/C [15] of the same compound?
Answer: 70.3%

Question: What about the viability, T/C [16] of the same compound?
Answer: 86.8%

Question: What about the viability, T/C [17] of the same compound?
Answer: 95.9%

Question: And the viability, T/C [18]?
Answer: 41.2%

Question: What about the viability, T/C [19] of the same compound?
Answer: 78.6%

Question: What about the viability, T/C [20] of the same compound?
Answer: 82%

Question: What about the viability, T/C [21] of the same compound?
Answer: 83.9%

Question: What about the viability, T/C [22] of the same compound?
Answer: 85.8%

Question: What about the viability, T/C [23] of the same compound?
Answer: 84.9%

Question: What about the viability, T/C [24] of the same compound?
Answer: 53.1%

Question: What about the viability, T/C [25] of the same compound?
Answer: 69.1%

Question: And the viability, T/C [26]?
Answer: 62.8%

Question: What about the viability, T/C [27] of the same compound?
Answer: 69.6%

Question: What about the viability, T/C [28] of the same compound?
Answer: 90%

Question: What about the viability, T/C [29] of the same compound?
Answer: 90%

Question: What about the viability, T/C [30] of the same compound?
Answer: 54.4%

Question: What about the viability, T/C [31] of the same compound?
Answer: 64.8%

Question: And the viability, T/C [32]?
Answer: 67.4%

Question: What about the viability, T/C [33] of the same compound?
Answer: 71.6%

Question: What about the viability, T/C [34] of the same compound?
Answer: 78.9%

Question: What about the viability, T/C [35] of the same compound?
Answer: 101%

Question: What about the viability, T/C [36] of the same compound?
Answer: 32.6%

Question: Which IC50 (second compound 0.000949 µM) does the source give for `CCC(CC)c1cc(NC2CCC(N)C2)n2nccc2n1` (centres undefined) + CCn1c(-c2cccnc2C(C)OC)c2c3cc(ccc31)N1CCOC(CC(NC(=O)C(C(C)C)N(C)C(=O)C3(F)CCN(C(=O)C#CC(C)(C)N(C)C)CC3)C(=O)N3CCCC(N3)C(=O)OCC(C)(C)C2)C1 here?
Answer: 2760 nM

Question: What about the IC50 (second compound 0.003 µM) of the same compound?
Answer: 2750 nM

Question: What about the IC50 (second compound 0.00949 µM) of the same compound?
Answer: 2180 nM

Question: What about the IC50 (second compound 0.03 µM) of the same compound?
Answer: 1870 nM

Question: And the IC50 (second compound 0.0949 µM)?
Answer: 1670 nM

Question: And the IC50 (second compound 0.3 µM)?
Answer: 1500 nM

Question: And the viability, T/C [1]?
Answer: 89.3%

Question: And the viability, T/C [2]?
Answer: 91.4%

Question: And the viability, T/C [3]?
Answer: 91.1%

Question: And the viability, T/C [4]?
Answer: 97.8%

Question: And the viability, T/C [5]?
Answer: 44.2%

Question: What about the viability, T/C [6] of the same compound?
Answer: 1.81%

Question: And the viability, T/C [7]?
Answer: 97.9%

Question: What about the viability, T/C [8] of the same compound?
Answer: 112%

Question: And the viability, T/C [9]?
Answer: 102%

Question: What about the viability, T/C [10] of the same compound?
Answer: 105%

Question: And the viability, T/C [11]?
Answer: 42.4%

Question: What about the viability, T/C [12] of the same compound?
Answer: 1.8%

Question: And the viability, T/C [13]?
Answer: 107%

Question: What about the viability, T/C [14] of the same compound?
Answer: 77.5%

Question: What about the viability, T/C [15] of the same compound?
Answer: 86.7%

Question: And the viability, T/C [16]?
Answer: 87.6%

Question: And the viability, T/C [17]?
Answer: 32%

Question: And the viability, T/C [18]?
Answer: 2.19%

Question: What about the viability, T/C [19] of the same compound?
Answer: 93.3%

Question: What about the viability, T/C [20] of the same compound?
Answer: 86.3%

Question: And the viability, T/C [21]?
Answer: 89.9%

Question: What about the viability, T/C [22] of the same compound?
Answer: 84.3%

Question: What about the viability, T/C [23] of the same compound?
Answer: 21.4%

Question: And the viability, T/C [24]?
Answer: 2.92%

Question: What about the viability, T/C [25] of the same compound?
Answer: 106%

Question: What about the viability, T/C [26] of the same compound?
Answer: 96.6%

Question: What about the viability, T/C [27] of the same compound?
Answer: 90%

Question: What about the viability, T/C [28] of the same compound?
Answer: 80.5%

Question: And the viability, T/C [29]?
Answer: 12.4%

Question: What about the viability, T/C [30] of the same compound?
Answer: 3.14%

Question: And the viability, T/C [31]?
Answer: 82.4%

Question: And the viability, T/C [32]?
Answer: 89.8%

Question: What about the viability, T/C [33] of the same compound?
Answer: 84.7%

Question: What about the viability, T/C [34] of the same compound?
Answer: 69.2%

Question: What about the viability, T/C [35] of the same compound?
Answer: 15.2%

Question: And the viability, T/C [36]?
Answer: 2.62%
